Legend:
[1] = Benzoic acid hydroxylation assay; details: benzoic acid 1 mM, H2O2 6 mM, FeCl3 30 μM, chelator 30 μM, pH 7.4, up to 81 h
Text: Benzoic acid is a hydroxyl radical scavenger and reacts with hydroxyl radical to give 2-hydroxy, 3-hydroxy and 4-hydroxybenzoic acids. The benzoic acid hydroxylation assay is a chemical assay designed to detect damage caused by hydroxyl radical (Dean and Nicholson, Free Radical Research 1994, vol 20, 83-101). For example, deferiprone suppresses the formation of hydroxybenzoic acids in the presence of iron salts and hydrogen peroxide, while EDTA and iron salts allow such hydroxylation reactions to take place.
This screening assay involves the use of iron salt, benzoic acid, hydrogen peroxide and the chelator and measures the ability of the chelator to inhibit the formation of hydroxybenzoate as an indicator to prevent hydroxyl radical formation in living system.
Briefly, this procedure is based on the ability of hydroxyl radicals to hydroxylate benzoate to give 2-, 3- and 4-hydroxylated benzoic acid products. Benzoic acid (1 mM) is incubated over time up to 81 h at room temperature in the dark in 10 mM phosphate buffer (pH 7.4) with 6 mM hydrogen peroxide, ferric chloride (30 μM) and the Fe chelator (30 μM). HPLC is the method of choice used to monitor and quantify the amount of 2-, 3- and 4-hydroxylated products formed over time in the reaction mixture, and can be verified against authentic benzoic acid and its hydroxylated products via their respective retention times and areas under curve. In addition, several controls are used: (i) a control without added Fe stock solution and Fe chelator; (ii) a control without added Fe chelator; (iii) EDTA as positive control; and (iv) deferiprone as negative control. The Fe-EDTA system is a hydroxyl radical generator and is known to promote hydroxylation of benzoic acid.

[2] = Stepwise formation constants for Zn-ligand system by potentiometric titration; format: physicochemical; details: for pZn^2+: pH 7.4, ligand 10 μM, metal 1 μM
Description: (§1) In a typical experiment, the sample solution was prepared by the following method: Apo7041 (126.3 mg, 0.50 mmol) was weighed into a 50 mL volumetric flask, and about 35 mL of a mixed solvent (0.1 M NaCl aqueous:MeOH, 1:1, v:v) was added. The mixture was sonicated for 10 min to give a clear colorless solution. The zinc stock solution (atomic absorption standard, Aldrich, 6.64 mL, 0.10 mmol) was pipetted into the solution followed by addition of sodium hydroxide solution (6.000 N, 300 μL). More of the mixed solvent was added to volume and the resulting solution was vortexed to mix. The molar ratio between the total zinc and the total Apo7041 was 1/5. 40 mL of the solution was transferred into a T70 titration cell by using a 10 mL digital pipet. A 6.000 N sodium hydroxide solution (160 μL) was added, and the pH (11.95) of the solution was recorded. The solution was allowed to equilibrate at 22° C. for 5 min.
The solution was then titrated against a 6.000 N hydrochloric acid solution at 22° C. by using a Mettler Toledo T70 autotitrator, until the pH reached 1.5. The volume of acid added and the pH reading were recorded. Thus, 523 measurements were taken for this experiment.
(§2) The data set of pH vs. acid volume for Zn-Apo7041 system was analyzed using Hyperquad 2000 software (version 2.1, Peter Gans, University of Leeds). The formation constants for Zn-Apo7041 system were optimized using the model shown in the first column of the table 29D. The results are shown in the second and third column.
(§3) pM^n+ is defined as −log [M(H2O)m]^n+ at physiological conditions, i.e.: pH 7.4, a ligand concentration of 10 μM, and a metal concentration of 1 μM. To calculate pM^n+ for a MLn system, βn and pKa values are needed (βn are the formation constants for M^n++n L^−⇄MLn; pKa are the equilibrium constants for L^−+n H^+⇄LHn^(n-1)+). The pM^n+ is calculated using the HySS software (HYSS© 2000 Protonic Software).

[3] = Stepwise formation constants for Cu-ligand system by potentiometric titration; format: physicochemical; details: for pCu^2+: pH 7.4, ligand 10 μM, metal 1 μM
Description: as §1, with “(126.1” for “(126.3”, “copper” for “zinc”, “6.33” for “6.64”, “solution.” for “solution followed by addition of sodium hydroxide solution (6.000 N, 300 μL).”, “(300” for “(160”, “(12.17)” for “(11.95)”
The solution was then titrated against a 6.000 N hydrochloric acid solution at 22° C. by using a Mettler Toledo T70 autotitrator, until the pH reached 1.5. The volume of acid added and the pH reading were recorded. Thus, 533 measurements were taken for this experiment.
as §2, with “Cu-Apo7041” for “Zn-Apo7041”, “Table 29C.” for “the table 29D.”
as §3

[4] = pKa determination by potentiometric titration; format: physicochemical; details: 0.1M aqueous NaCl/MeOH, 1/1, v/v
[5] = Pharmacokinetics following oral administration to rats; format: in vivo, male Sprague Dawley rats; details: rat, oral 50 mg/kg in 0.5% CMC; for Brain AUC_D_obs / Brain Cmax_D / Plasma AUC_D_obs / Plasma Cmax_D: dose-normalized
Description: Adult male Sprague Dawley rats (275-325 g, Charles River Laboratories, Saint Constant, Quebec) were orally dosed with 50 mg/kg of test compound (Apo7323, Apo7433, Apo7435 or Apo7448) suspended in 0.5% carboxymethylcellulose (CMC) in water. For each test compound, samples were obtained from the plasma and brain of three animals per time point, at 0 (dosed with 0.5% CMC), 0.25, 0.5, 1, 2, 4, 8 and 12 h following administration. The concentration of the compound in rat plasma and brain samples was determined by HPLC-UV. Pharmacokinetic parameters were computed using the PKPlus Module in GastroPlus® ver. 8.0 (Simulations Plus Inc., Lancaster, Calif.). Calculation method: linear trapezoidal with linear interpolation.

[6] = 0.1M aqueous NaCl/MeOH, 1/1, v/v
[7] = 0.1M aqueous NaCl/MeOH, 1/1, v/v, listed as drawing 104

Structure (SMILES)	Log β120 (Zn2+) [2, 6]	pZn^2+ [2]	Log β120 (Cu2+) [3, 6]	pCu^2+ [3]	pKa1 [4]	pKa2 [4]	CL [5] [mL/min/kg]	Brain AUC_D_obs [5] [kg·µg·h/mL/mg]	Brain Cmax_D [5] [kg·µg/mL/mg]	Plasma AUC_D_obs [5] [kg·µg·h/mL/mg]	Plasma Cmax_D [5] [kg·µg/mL/mg]	other results
CN(C)C(c1c(O)c(=O)ccn1C)C(F)(F)F (stereo not drawn) [Apo7041, 2-[1-(dimethylamino)-2,2,2-trifluoroethyl]-3-hydroxy-1-methylpyridin-4(1H)-one]	13.2	pZn^2+ = 6.0	17.3	pCu^2+ = 7.7	10.1	pKa2 = 3.2						hydroxylation of benzoic acid by Fe chelate [1]: do not promote the hydroxylation of benzoic acid; Log β111 (Zn2+) [2, 6]: 13.1; Log β121 (Zn2+) [2, 6]: 19.6; Log β111 (Zn2+) [2, 7]: Logβ111 = 13.1; Log β120 (Zn2+) [2, 7]: Logβ120 = 13.2; Log β121 (Zn2+) [2, 7]: Logβ121 = 19.6; Log β121 (Cu2+) [3, 6]: 23.0; Log β122 (Cu2+) [3, 6]: 27.9; Logβ111 (Cu2+) [3, 6]: Logβ111 = 14.1; Log β120 (Cu2+) [3, 7]: Logβ120 = 17.3; Log β121 (Cu2+) [3, 7]: Logβ121 = 23.0; Log β122 (Cu2+) [3, 7]: Logβ122 = 27.9; pKa1 + pKa2 [4]: 13.3
O=c1ccn(CC(F)(F)F)c(CN2CCOCC2)c1O [Apo7323, 3-hydroxy-2-(morpholinomethyl)-1-(2,2,2-trifluoroethyl)pyridin-4(1H)-one]							33.2	1.010	0.218	1.630	0.400	
Cc1c(O)c(=O)ccn1C [Deferiprone, 3-hydroxy-1,2-dimethylpyridin-4(1H)-one, reference compound]	15.0	pZn^2+ = 6.3	20.5	pCu^2+ = 9.9	pKa1 = 10.6	pKa2 = 4.0						Logβ1 (Zn2+) [2, 6]: Logβ1 = 8.1; Logβ2 (Zn2+) [2, 6]: Logβ2 = 15.0; Logβ1 (Cu2+) [3, 6]: Logβ1 = 10.8; Logβ2 (Cu2+) [3, 6]: Logβ2 = 20.5
Cc1c(O)c(=O)c(C(N2CCOCC2)C(F)(F)F)cn1C (stereo not drawn) [Apo7435, 3-hydroxy-1,2-dimethyl-5-(2,2,2-trifluoro-1-morpholinoethyl)pyridin-4(1H)-one]							110	0.122	0.102	0.516	0.312	
